Data published in patent publication US12404519B2 (priority 2013, dated 2025).
Where a SMILES comes first, the peptide text is derived from it.

Experiments:
pathogenic fungi = conditions: pure protein added to in vitro antifungal assay medium; cited from earlier work
[1] = tested on: Fusarium graminearum PH-1

Molecule	Growth inhibition of pathogenic fungi in vitro (pathogenic fungi)	IC100 (concentration required for 100% inhibition of fungal growth) [1]	IC50 ([1]; 24 h) [µM]
Rs-AFP1: small cysteine-rich protein isolated from radish seed (QKLCERPSGTWSGVCGNNNACKNQCINLEKARHGSCNYVFPAHKCICYFPC; UniProt P69241 30-80, looked up)	inhibited the growth of many pathogenic fungi	–	–
Rs-AFP2: small cysteine-rich protein isolated from radish seed (QKLCQRPSGTWSGVCGNNNACKNQCIRLEKARHGSCNYVFPAHKCICYFPC; UniProt P30230 30-80, looked up)	inhibited the growth of many pathogenic fungi	–	–
C[C@H](NC(=O)CN)C(=O)N[C@@H](CS)C(=O)N[C@@H](Cc1c[nH]cn1)C(=O)N[C@@H](CCCNC(=N)N)C(=O)N[C@@H](CCC(N)=O)C(=O)NCC(=O)N[C@@H](Cc1ccccc1)C(=O)NCC(=O)N[C@@H](Cc1ccccc1)C(=O)N[C@@H](C)C(=O)N[C@@H](CS)C(=O)N[C@@H](Cc1ccccc1)C(=O)N[C@@H](CS)C(=O)N[C@@H](Cc1ccc(O)cc1)C(=O)N[C@@H](CCCCN)C(=O)N[C@@H](CCCCN)C(=O)N[C@@H](CS)C(=O)O [GMA-5C, GACHRQGFGFACFCYKKC] (H-GACHRQGFGFACFCYKKC-OH; N-terminus and C-terminus assumed)	–	about 24 μM	6 to 12
